By IC50 is commonly meant the point on the concentration scale where inhibition reaches its midpoint. Read a low IC50 as greater potency in that assay.

This assay addresses MMP-13 (Homo sapiens, UniProt P45452). Nature of the assay: Assay for determining MMP-13 inhibition (fluorogenic substrate). The format is biochemical. The conditions noted are these: Table 1, Summary of MMP-13 Activity for Compounds of Formula I; bounds only. As for the experimental part:
The MMP-13 inhibiting activity of the multicyclic bis-amide MMP-13 inhibiting compounds of the present invention may be measured using any suitable assay known in the art. A standard in vitro assay for MMP-13 inhibiting activity is described in Example 3000.
Assay for Determining MMP-13 Inhibition
The typical assay for MMP-13 activity is carried out in assay buffer comprised of 50 mM Tris, pH 7.5, 150 mM NaCl, 5 mM CaCl2 and 0.05% Brij-35. Different concentrations of tested compounds are prepared in assay buffer in 50 μL aliquots. 10 μL of 40 nM stock solution of MMP-13 enzyme is added to the compound solution. The mixture of enzyme and compound in assay buffer is thoroughly mixed and incubated for 20 minutes at room temperature. Upon the completion of incubation, the assay is started by addition of 40 μL of 12.5 μM stock solution of MMP-13 fluorogenic substrate (Calbiochem Cat. No. 444235). The time-dependent increase in fluorescence is measured at the 325 nm excitation and 393 nm emission by automatic plate multireader. The IC50 values are calculated from the initial reaction rates. Selectivity assays were run in a similar manner using MMP-1, MMP-14 and TACE.
As for `Cc1cc(CNC(=O)c2cc(C(=O)NC3CCc4cc(-c5nnn[nH]5)ccc43)ncn2)ccc1F` (stereo not shown) [Ex. 1], the concentration for half-maximal inhibition (IC50) was over 5 nM.

Turning to `COc1cccc(CNC(=O)c2cc(C(=O)N[C@H]3CCc4cc(-c5noc(=O)[nH]5)ccc43)ncn2)c1` [Ex. 2407], the IC50 is under 5 nM.

As to `Cc1cc(CNC(=O)c2cc(C(=O)N[C@H]3CCc4c3ccc(C(=O)O)c4C)ncn2)ccc1F` [Ex. 2522], the 50% inhibitory concentration (IC50) was under 5 nM.

Turning to `COc1cc(CNC(=O)c2cc(C(=O)N[C@H]3CCc4c3ccc(C(=O)O)c4C)ncn2)ccc1F` [Ex. 2562], the IC50 was under 5 nM.

`Cc1c(C(=O)O)ccc2c1CC[C@@H]2NC(=O)c1cc(C(=O)NCc2ccc3c(c2)CN(c2c(N)c(=O)c2=O)CC3)ncn1` [Ex. 2539] came in with a half-maximal inhibitory concentration (IC50) of under 5 nM.

For `Cc1c(-c2nnn[nH]2)ccc2c1CC[C@@H]2NC(=O)c1cc(C(=O)NCc2ccc3c(c2)CN(c2c(N)c(=O)c2=O)CC3)ncn1` [Ex. 2328], the IC50 is under 5 nM.

In turn, `COc1cccc(CNC(=O)c2cc(C(=O)N[C@H]3CCc4cc(-c5nnn[nH]5)ccc43)ncn2)c1` [Ex. 2308] had an IC50 of over 5 nM.

Take `Cc1cc(CNC(=O)c2cc(C(=O)N[C@H]3CCc4cc(C(=O)O)ccc43)nc(N)n2)ccc1F` [Ex. 2702]: the 50% inhibitory concentration (IC50) is under 5 nM.

The molecule `Cc1cc(CNC(=O)c2cc(C(=O)N[C@H]3CCc4cc(-c5nnn[nH]5)ccc43)ncn2)ccc1F` [Ex. 2303] returned an IC50 of over 5 nM.

In the case of `Cc1cc(CNC(=O)c2cc(C(=O)NC3CCCc4cc(-c5nnn[nH]5)ccc43)ncn2)ccc1F` (stereo not shown) [Ex. 2301], the concentration for half-maximal inhibition (IC50) is over 5 nM.

Values taken from patent publication US20060173183A1, “Multicyclic bis-amide MMP inhibitors” (Alantos Pharmaceuticals, Inc.,, priority 2004, published 2006).
